Common to all, as to type: cell-based
In one assay the test system is MCF-7 cells. In words: Inhibition of cell proliferation of MCF-7 cells (CCK-8, 9 days). The following applies: treated for 9 days, CCK-8 kit (Table 6). The method in brief:
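MCF-7 cells seeded at 800 cells/well in DMEM with 10% FBS, exposed to a range of compound concentrations for 9 days at 37°C, 5% CO2. Viability read by CCK-8; IC50 derived for proliferation inhibition.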

Assay [1] deals with T1, ERα (Homo sapiens, UniProt P03372).
T1 sequence (P03372 1-595): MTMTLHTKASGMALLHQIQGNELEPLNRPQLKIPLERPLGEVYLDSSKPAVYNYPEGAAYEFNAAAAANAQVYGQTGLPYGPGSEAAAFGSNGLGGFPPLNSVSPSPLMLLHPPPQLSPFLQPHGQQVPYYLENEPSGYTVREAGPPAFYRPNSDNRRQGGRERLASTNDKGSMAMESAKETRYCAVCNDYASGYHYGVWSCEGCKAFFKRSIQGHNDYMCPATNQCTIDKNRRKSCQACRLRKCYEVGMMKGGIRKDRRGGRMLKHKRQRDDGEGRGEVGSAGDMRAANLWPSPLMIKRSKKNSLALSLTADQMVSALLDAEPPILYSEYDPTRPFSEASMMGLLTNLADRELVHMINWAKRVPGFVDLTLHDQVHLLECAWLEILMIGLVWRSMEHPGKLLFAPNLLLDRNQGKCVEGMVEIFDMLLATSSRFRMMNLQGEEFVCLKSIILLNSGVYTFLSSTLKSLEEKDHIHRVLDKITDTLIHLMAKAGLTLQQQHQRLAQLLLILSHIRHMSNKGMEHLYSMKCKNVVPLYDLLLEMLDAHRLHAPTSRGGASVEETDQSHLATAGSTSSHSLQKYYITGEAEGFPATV
In words: Degradation of ERα in MCF-7 cells (immunoblotting, 4 h). Put shortly: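 MCF-7 cells treated 4 h at 37°C with compounds at 0.15-1000nM final. ERα in lysates measured by immunoblot, with band grayscale normalized to an internal reference protein. Degradation rate calculated against DMSO-treated control.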
(A western blot detects proteins with antibodies after separation by electrophoresis.)

Assay [2] has as its target T1, ERα. Nature of the assay: Degradation of ERα in T-47D cells (immunoblotting, 4 h). The arrangement: host or cells: T-47D. The method in brief: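 T-47D cells were treated with compound (final 0.15-1000 nM, DMSO) for 4 h at 37°C, 5% CO2. Cells were lysed in RIPA buffer with protease inhibitor, and ERα protein in the cleared lysate was measured by immunoblotting.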

As a reminder, the IC50 is the concentration needed to halve the response being measured. Low readings indicate higher potency, high ones lower potency.

Regarding `C[C@H]1C[C@@H](N2CCC3(CC2)COc2c3ccc3c2CN(C2CCC(=O)NC2=O)C3=O)CCN1C(=O)C1CCN(c2ccc([C@@H]3c4ccc(O)cc4CC[C@@H]3c3ccccc3)cc2)CC1` (some centres unmarked) [G11], in the assay with MCF-7 cells, the IC50 stood at 0.89 µM. Also, the results for the “Degradation rate (%) of ERα in MCF-7 cells” value on ERα [1] (1nM compound) and at ERα [1] (10nM compound) were 38% and 56%, respectively. Also, the “Degradation rate (%) of ERα in T-47D cells” value is on record as 55% at ERα [2] (1nM compound) and 80% on ERα [2] (10nM compound).

In turn, `O=C1CCC(N2Cc3cc4c(cc3C2=O)CCC2(CN(CC3CCN(C(=O)C5CCN(c6ccc([C@@H]7c8ccc(O)cc8CC[C@@H]7c7ccccc7)cc6)CC5)CC3)C2)O4)C(=O)N1` (some centres unmarked) [K40] returned an IC50 in the assay with MCF-7 cells of 2.35 µM. The “Degradation rate (%) of ERα in MCF-7 cells” value on ERα [1] (1nM compound) was determined as 14%; at ERα [1] (10nM compound), 45%. In addition, the “Degradation rate (%) of ERα in T-47D cells” value on ERα [2] (1nM compound) came to 40%; on ERα [2] (10nM compound), 77%.

As to `O=C1CCC(N2Cc3c(ccc4c3OCC43CCN(C(=O)C4CCN(CC5(F)CCN(c6ccc([C@@H]7c8ccc(O)cc8CC[C@@H]7c7ccccc7)cc6)CC5)CC4)CC3)C2=O)C(=O)N1` (some centres unmarked) [E1], half-maximal inhibition with MCF-7 cells (IC50) was put at 0.0126 µM. The “Degradation rate (%) of ERα in MCF-7 cells” value on ERα [1] (1nM compound) worked out at 39%; on ERα [1] (10nM compound) it was 75%. For the same compound, the “Degradation rate (%) of ERα in T-47D cells” value at ERα [2] (1nM compound) is listed as 57%; on ERα [2] (10nM compound), 82%.

Consider `O=C1CCC(N2Cc3cc4c(cc3C2=O)OC2(CC4)CN(CC3CCN(C(=O)C4CCN(c5ccc([C@@H]6c7ccc(O)cc7CC[C@@H]6c6ccccc6)cc5)CC4)CC3)C2)C(=O)N1` (some centres unmarked) [K39], for which the IC50 in the assay on MCF-7 cells turned out to be 0.059 µM. For the same compound, the “Degradation rate (%) of ERα in MCF-7 cells” value amounted to 30% on ERα [1] (1nM compound) and 56% on ERα [1] (10nM compound). Besides, the “Degradation rate (%) of ERα in T-47D cells” value at ERα [2] (1nM compound) amounted to 15%; at ERα [2] (10nM compound) it was 69%.

Consider `O=C1CCC(N2Cc3c(ccc4c3OCC43CCN(C(=O)CN4CCC(Oc5ccc([C@@H]6c7ccc(O)cc7CC[C@@H]6c6ccccc6)cc5)CC4)CC3)C2=O)C(=O)N1` (some centres unmarked) [H60], for which the IC50 in the assay with MCF-7 cells worked out at 0.106 µM. In addition, the “Degradation rate (%) of ERα in MCF-7 cells” value was found to be 38% on ERα [1] (1nM compound) and 35% at ERα [1] (10nM compound). For the same compound, the “Degradation rate (%) of ERα in T-47D cells” value at ERα [2] (1nM compound) worked out at 41%; on ERα [2] (10nM compound), 37%.

The compound `O=C1CCC(N2Cc3c(ccc4c3OCC43CCN(C(=O)C4CN(CC5CCN(c6ccc([C@@H]7c8ccc(O)cc8CC[C@@H]7c7ccccc7)cc6)CC5)C4)CC3)C2=O)C(=O)N1` (some centres unmarked) [J9] returned an IC50 with MCF-7 cells of 0.00564 µM. Further, the “Degradation rate (%) of ERα in MCF-7 cells” value at ERα [1] (1nM compound) came to 63%; at ERα [1] (10nM compound), 69%. Besides, the “Degradation rate (%) of ERα in T-47D cells” value at ERα [2] (1nM compound) was 78%; at ERα [2] (10nM compound) it was 83%.

In the case of `O=C1CCC(N2Cc3cc4c(cc3C2=O)OC2(CC4)CN(C3CCN(C(=O)C4CCN(c5ccc([C@@H]6c7ccc(O)cc7CC[C@@H]6c6ccccc6)cc5)CC4)CC3)C2)C(=O)N1` (some centres unmarked) [A82], in the assay on MCF-7 cells, the IC50 was 0.448 µM. Besides, the “Degradation rate (%) of ERα in MCF-7 cells” value was found to be 16% on ERα [1] (1nM compound) and 51% on ERα [1] (10nM compound). The “Degradation rate (%) of ERα in T-47D cells” value amounted to 51% on ERα [2] (1nM compound) and 78% on ERα [2] (10nM compound).

`O=C1CCC(N2Cc3ccc4c(c3C2=O)OCC2(CCN(C3CCC5(CC3)CN(c3ccc([C@@H]6c7ccc(O)cc7CC[C@@H]6c6ccccc6)cc3)C5)CC2)C4)C(=O)N1` (some centres unmarked) [L6]: half-maximal inhibition in the assay with MCF-7 cells (IC50) required 0.93 µM. Besides, the “Degradation rate (%) of ERα in MCF-7 cells” value on ERα [1] (1nM compound) is 14%; on ERα [1] (10nM compound), 45%. The “Degradation rate (%) of ERα in T-47D cells” value amounted to 29% on ERα [2] (1nM compound) and 68% at ERα [2] (10nM compound).

For `O=C1CCC(N2Cc3c(ccc4c3OCC43CCN(C4CC5CC4CN5C4CC5(CCN(c6ccc([C@@H]7c8ccc(O)cc8CC[C@@H]7c7ccccc7)cc6)CC5)C4)CC3)C2=O)C(=O)N1` (some centres unmarked) [D3], in the assay on MCF-7 cells, 0.00658 µM corresponded to half-maximal inhibition (IC50). Further, the “Degradation rate (%) of ERα in MCF-7 cells” value on ERα [1] (1nM compound) is 38%; on ERα [1] (10nM compound) it was 60%. Moreover, the figures for the “Degradation rate (%) of ERα in T-47D cells” value at ERα [2] (1nM compound) and at ERα [2] (10nM compound) were 34% and 73%, respectively.

Take `C[C@@H]1Cc2c(ccc3[nH]ncc23)C(c2c(F)cc(N3CCC4(CCC(N5CCC6(CC5)COc5c6ccc6c5CN(C5CCC(=O)NC5=O)C6=O)CC4)CC3)cc2F)N1CC(F)F` (some centres unmarked) [G20]: 0.0497 µM corresponded to half-maximal inhibition in the assay on MCF-7 cells (IC50). For the same compound, the “Degradation rate (%) of ERα in MCF-7 cells” value at ERα [1] (1nM compound) is 22%; at ERα [1] (10nM compound), 45%. Moreover, the “Degradation rate (%) of ERα in T-47D cells” value at ERα [2] (1nM compound) is 51%; at ERα [2] (10nM compound), 69%.

`COC(=O)[C@H]1CC(N2CCC3(CC2)COc2c3ccc3c2CN(C2CCC(=O)NC2=O)C3=O)CCN1CC1CCN(c2ccc([C@@H]3c4ccc(O)cc4CC[C@@H]3c3ccccc3)cc2)CC1` (some centres unmarked) [J7]: the IC50 in the assay with MCF-7 cells was 0.486 µM. In addition, the “Degradation rate (%) of ERα in MCF-7 cells” value at ERα [1] (1nM compound) was 29%; at ERα [1] (10nM compound), 75%. The entries for the “Degradation rate (%) of ERα in T-47D cells” value on ERα [2] (1nM compound) and on ERα [2] (10nM compound) were 16% and 67%, respectively.

The compound `O=C1CCC(N2C(=O)c3ccc4c(c3C2=O)OCC42CCN(C(=O)CN3CCC4(CC3)CCN(c3ccc([C@@H]5c6ccc(O)cc6CC[C@@H]5c5ccccc5)cc3)CC4)CC2)C(=O)N1` (some centres unmarked) [A68] returned an IC50 with MCF-7 cells of 0.0191 µM. The results for the “Degradation rate (%) of ERα in MCF-7 cells” value on ERα [1] (1nM compound) and on ERα [1] (10nM compound) were 11% and 40%, respectively. The “Degradation rate (%) of ERα in T-47D cells” value at ERα [2] (1nM compound) amounted to 35%; at ERα [2] (10nM compound), 77%.

As for `O=C1CCC(N2Cc3c(ccc4c3OCC43CCN(CC4CCC(N5CCN(c6ccc([C@@H]7c8ccc(O)cc8CC[C@@H]7c7ccccc7)cc6)CC5)CC4)CC3)C2=O)C(=O)N1` (some centres unmarked) [H15], the IC50 in the assay on MCF-7 cells worked out at 0.0435 µM. Moreover, the “Degradation rate (%) of ERα in MCF-7 cells” value at ERα [1] (1nM compound) is reported as 29%; on ERα [1] (10nM compound), 51%. For the same compound, the “Degradation rate (%) of ERα in T-47D cells” value is 5% at ERα [2] (1nM compound) and 56% at ERα [2] (10nM compound).

In turn, `O=C1CCC(N2Cc3c(ccc4c3OCC43CCN(C4CC5(CCC6(CCN(C7CCN(c8ccc([C@@H]9c%10ccc(O)cc%10CC[C@@H]9c9ccccc9)cc8)CC7)CC6)CC5)C4)CC3)C2=O)C(=O)N1` (some centres unmarked) [K15] registered an IC50 with MCF-7 cells of 0.196 µM. Moreover, the “Degradation rate (%) of ERα in MCF-7 cells” value at ERα [1] (1nM compound) is given as 16%; at ERα [1] (10nM compound) it was 42%. The “Degradation rate (%) of ERα in T-47D cells” value on ERα [2] (1nM compound) came out at 18%; on ERα [2] (10nM compound) it was 35%.

The compound `CN(C(=O)CN1CCC2(CC1)COc1c2ccc2c1CN(C1CCC(=O)NC1=O)C2=O)C1CC2(CCN(c3ccc([C@@H]4c5ccc(O)cc5CC[C@@H]4c4ccccc4)cc3)CC2)C1` (some centres unmarked) [H47] yielded an IC50 with MCF-7 cells of 0.363 µM. For the same compound, the entries for the “Degradation rate (%) of ERα in MCF-7 cells” value at ERα [1] (1nM compound) and at ERα [1] (10nM compound) were 39% and 76%, respectively. Besides, the “Degradation rate (%) of ERα in T-47D cells” value was determined as 49% on ERα [2] (1nM compound) and 82% at ERα [2] (10nM compound).

In the case of `O=C1CCC(N2Cc3c(ccc4c3OCC43CCN(C4CC5(CCN(C6CC7(CCN(c8ccc([C@@H]9c%10ccc(O)cc%10CC[C@@H]9c9ccccc9)cc8)CC7)C6)CC5)C4)CC3)C2=O)C(=O)N1` (some centres unmarked) [G8], it took 0.749 µM to reach half-maximal inhibition in the assay with MCF-7 cells (IC50). In addition, the “Degradation rate (%) of ERα in MCF-7 cells” value is 29% at ERα [1] (1nM compound) and 73% on ERα [1] (10nM compound). For the same compound, the “Degradation rate (%) of ERα in T-47D cells” value at ERα [2] (1nM compound) is listed as 45%; on ERα [2] (10nM compound), 81%.

The record behind these values is EP4656642A1, “ESTROGEN RECEPTOR PROTEOLYSIS TARGETING CHIMERA COMPOUND AND USE THEREOF” (GAN & LEE PHARM CO., LTD, priority 2023, dated 2024).
